The values below come from patent US10413545B2, “Imidazolin-5-one derivative useful as FASN inhibitors for the treatment of cancer” (Janssen Pharmaceutica NV, priority 2013, dated 2019).

Where two headings read alike, the source gives them in different places. Where only a bound is given, the exact number is not on record here.

Assay [1] addresses FASN Keto-reductase Domain (hFASN enzyme, full length) (Homo sapiens (Human), UniProt P49327). Nature of the assay: Fatty Acid Synthase Keto-Reductase Domain (FASN KR) Inhibition. It counts as biochemical. As to conditions: NADPH oxidation at 340 nm, ethyl acetoacetate substrate, mean if tested more than once; for IC50: read-out: FASN Keto-reductase Domain pIC50 (converted). The method, then:
After 20 minutes incubation at room temperature the plate was measured again (T2).
The decrease in absorbance was calculated as (Absorbance before incubation T1)−(Absorbance following incubation T2).
(§1) Raw data generated by the instrument were normalized to % Controlmin values, which were calculated as: % Controlmin=100*(x−mLC)/(mHC−mLC)
where mLC and mHC were the means of the low control wells and high control wells on the plate, after manual exclusion of outliers. A plot of Controlmin versus test compound concentration was fitted to a 4-parameter logistic curve using a non-linear least squares regression method.

Assay [2] deals with A2780 ovarian cells. Kind of assay: A2780 Ovarian Cell Proliferation Assay in Lipid Reduced Medium, with and without Palmitate (MTT). The note with it: 10% lipid-reduced serum, 96 h; for IC50: Homo sapiens. It counts as cell-based.
Assay [3] deals with LNCaP_Vancouver prostate cells. Kind of assay: In Vitro LNCaP Vancouver Prostate Cell Proliferation Assay in Lipid Reduced Medium. The class given is cell-based. The note with it: 10% lipid reduced serum, 96 h, ATP-glow luminescence; for IC50: Prostate cell, read-out: pIC50 LNCaP_Vancouver prostate cell (converted).
Assay [4] addresses Human FASN (hFASN enzyme, full length) (Homo sapiens (Human), UniProt P49327). Kind of assay: Fatty Acid Synthase (FASN) Inhibition Scintillation Proximity Assay. The class given is biochemical. As to conditions: hFASN SPA, 3H-acetyl-CoA/malonyl-CoA; mean if tested more than once; ~ = standard error of pIC50 >0.5. The method, then:
In this assay, inhibition of FASN activity is measured using ^3H-acetyl-CoA and malonyl-CoA as substrates. ^3H-Acetyl CoA is converted to ^3H-palmitate through a series of reactions by the FASN protein, which contains 7 functional domains and carries out 7 enzymatic reactions to ultimately produce ^3H-palmitate. The assay principle is based upon the fact that ^3H-acetyl-CoA is hydrophilic and the end product, ^3H-palmitate is hydrophobic.
0.9 μL test compound (at concentrations of 30 μM, 10 μM, 3 μM, 1 μM, 0.30 μM, 0.10 μM, 0.03 μM and 0.01 μM)/DMSO and 10 μL hFASN enzyme (full length, 300 ng, purified in house) or 10 μL assay buffer was added to the wells. […] The reaction was stopped by adding 20 μL Streptavidin coupled imaging beads (25 mg/ml). After incubation for 30 minutes at room temperature in the dark, the 384 well plate was centrifuged at 1500 rpm for 3 minutes and was measured after at least 24 hrs by the LEADseeker™, measuring emission using a 610±20 nm pass filter.
as §1
where mLC and mHC were the means of the low control wells and high control wells on the plate, after manual exclusion of outliers. […]
In general terms: Scintillation proximity formats need no separation of bound from free tracer.

Assay [5] concerns PC-3M-Luc-C6 prostate cells. Kind of assay: In Vitro PC-3M-Luc-C6 Prostate Cell Proliferation Assay in Lipid Reduced Medium. It counts as cell-based. As to conditions: 10% lipid reduced serum, 96 h, ATP-glow luminescence; for IC50: Prostate cell, read-out: pIC50 PC-3M-Luc-C6 prostate cell (converted).
[6] abbreviates: no palmitate, read-out: pIC50 Without Palmitate (converted).
[7] abbreviates: 25 μM palmitate added (control), read-out: pIC50 With Palmitate (converted).

Chain of FASN Keto-reductase Domain (hFASN enzyme, full length) (P49327 whole entry, the tested form may be a part): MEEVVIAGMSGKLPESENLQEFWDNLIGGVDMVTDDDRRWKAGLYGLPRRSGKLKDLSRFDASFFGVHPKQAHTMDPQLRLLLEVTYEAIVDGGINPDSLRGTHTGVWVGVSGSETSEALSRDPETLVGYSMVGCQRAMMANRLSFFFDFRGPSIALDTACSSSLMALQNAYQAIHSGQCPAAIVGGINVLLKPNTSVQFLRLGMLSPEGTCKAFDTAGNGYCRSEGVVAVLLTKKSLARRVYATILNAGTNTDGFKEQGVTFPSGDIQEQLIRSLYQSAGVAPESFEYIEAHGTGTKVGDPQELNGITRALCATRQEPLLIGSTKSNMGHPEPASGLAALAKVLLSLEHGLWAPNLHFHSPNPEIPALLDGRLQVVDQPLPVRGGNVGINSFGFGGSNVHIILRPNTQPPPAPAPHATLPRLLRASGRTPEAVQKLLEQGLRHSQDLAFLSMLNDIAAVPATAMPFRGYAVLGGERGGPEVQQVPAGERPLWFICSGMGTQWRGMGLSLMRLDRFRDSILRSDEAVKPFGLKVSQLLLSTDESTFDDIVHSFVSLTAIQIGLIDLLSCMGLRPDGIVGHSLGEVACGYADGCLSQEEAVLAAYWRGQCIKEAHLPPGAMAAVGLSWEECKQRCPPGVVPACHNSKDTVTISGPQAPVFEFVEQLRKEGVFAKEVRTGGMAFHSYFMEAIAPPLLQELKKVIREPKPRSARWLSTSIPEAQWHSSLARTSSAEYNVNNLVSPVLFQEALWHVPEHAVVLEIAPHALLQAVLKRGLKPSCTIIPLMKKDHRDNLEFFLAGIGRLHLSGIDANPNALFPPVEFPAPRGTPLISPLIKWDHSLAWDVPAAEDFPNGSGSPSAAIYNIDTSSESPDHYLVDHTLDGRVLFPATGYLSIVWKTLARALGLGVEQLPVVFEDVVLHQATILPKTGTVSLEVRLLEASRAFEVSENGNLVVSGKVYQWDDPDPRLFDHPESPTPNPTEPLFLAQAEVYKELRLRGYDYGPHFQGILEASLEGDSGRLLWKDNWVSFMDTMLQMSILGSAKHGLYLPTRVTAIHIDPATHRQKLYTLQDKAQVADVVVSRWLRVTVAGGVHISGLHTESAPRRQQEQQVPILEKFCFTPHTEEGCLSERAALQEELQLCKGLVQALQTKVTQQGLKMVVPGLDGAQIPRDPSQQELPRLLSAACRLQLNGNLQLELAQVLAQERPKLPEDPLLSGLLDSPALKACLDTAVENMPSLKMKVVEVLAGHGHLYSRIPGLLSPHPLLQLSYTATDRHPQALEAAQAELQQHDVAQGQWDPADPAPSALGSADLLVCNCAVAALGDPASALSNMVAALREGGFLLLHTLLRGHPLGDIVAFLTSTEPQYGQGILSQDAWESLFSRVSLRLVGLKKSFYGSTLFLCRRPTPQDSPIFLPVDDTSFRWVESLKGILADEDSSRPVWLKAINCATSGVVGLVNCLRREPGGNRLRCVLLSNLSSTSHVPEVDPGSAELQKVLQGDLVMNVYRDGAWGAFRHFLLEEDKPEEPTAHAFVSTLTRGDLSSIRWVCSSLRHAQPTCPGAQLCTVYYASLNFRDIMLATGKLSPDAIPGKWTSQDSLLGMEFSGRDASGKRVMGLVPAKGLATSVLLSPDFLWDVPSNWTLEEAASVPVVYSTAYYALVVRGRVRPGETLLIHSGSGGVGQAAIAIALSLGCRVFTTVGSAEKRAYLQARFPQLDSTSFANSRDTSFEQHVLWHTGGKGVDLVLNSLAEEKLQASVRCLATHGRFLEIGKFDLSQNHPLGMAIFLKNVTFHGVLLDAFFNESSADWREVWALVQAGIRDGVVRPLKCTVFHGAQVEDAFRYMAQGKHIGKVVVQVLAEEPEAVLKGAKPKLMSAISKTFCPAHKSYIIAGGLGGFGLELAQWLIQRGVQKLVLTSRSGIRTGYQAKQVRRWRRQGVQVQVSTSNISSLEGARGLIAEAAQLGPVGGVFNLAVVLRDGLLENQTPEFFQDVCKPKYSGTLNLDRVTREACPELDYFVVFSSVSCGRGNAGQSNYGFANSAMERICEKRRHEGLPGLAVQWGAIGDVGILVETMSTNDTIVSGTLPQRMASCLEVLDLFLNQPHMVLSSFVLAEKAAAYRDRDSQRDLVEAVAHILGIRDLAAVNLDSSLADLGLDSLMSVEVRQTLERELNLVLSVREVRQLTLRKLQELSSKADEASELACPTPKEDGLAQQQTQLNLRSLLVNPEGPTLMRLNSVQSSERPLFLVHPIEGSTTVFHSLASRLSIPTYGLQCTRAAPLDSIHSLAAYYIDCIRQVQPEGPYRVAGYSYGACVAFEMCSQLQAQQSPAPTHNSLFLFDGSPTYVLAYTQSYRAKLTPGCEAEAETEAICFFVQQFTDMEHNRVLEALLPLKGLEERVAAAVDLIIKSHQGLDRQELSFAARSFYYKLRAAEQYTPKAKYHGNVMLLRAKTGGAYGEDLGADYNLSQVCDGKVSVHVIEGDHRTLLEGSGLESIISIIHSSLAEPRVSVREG
Chain of Human FASN (hFASN enzyme, full length) (P49327 whole entry, the tested form may be a part): as above

Regarding `CC1(C)N=C(c2ccc(-c3ccc4cnccc4c3)cc2F)N(C[C@@H]2CCN(C(=O)C3CC3)C2)C1=O` [Compound 68, (R)-1-((1-(cyclopropanecarbonyl)pyrrolidin-3-yl)methyl)-2-(2-fluoro-4-(isoquinolin-6-yl)phenyl)-4,4-dimethyl-1H-imidazol-5(4H)-one], the IC50 in assay [1] is 47.9 nM; in assay [2] (setting [6]), 17.4 nM; in assay [3], 204 nM.
As to `CC1(C)N=C(c2ccc(-c3c[nH]c4ccccc34)cc2F)N(C[C@@H]2CCN(C(=O)C3CC3)C2)C1=O` [Compound 63, (R)-1-((1-(cyclopropanecarbonyl)pyrrolidin-3-yl)methyl)-2-(2-fluoro-4-(1H-indol-3-yl)phenyl)-4,4-dimethyl-1H-imidazol-5(4H)-one], the IC50 in assay [1] is 186 nM; in assay [3] it was 525 nM.
Turning to `CC1(C)N=C(c2ccc(-c3nc4ccccc4[nH]3)cc2)N(C[C@@H]2CCN(C(=O)C3CC3)C2)C1=O` [Compound 71, (R)-2-(4-(1H-benzo[d]imidazol-2-yl)phenyl)-1-((1-(cyclopropanecarbonyl)pyrrolidin-3-yl)methyl)-4,4-dimethyl-1H-imidazol-5(4H)-one], the “Human FASN pIC50” value in assay [4] was 5.23. Further, the IC50 in assay [2] (setting [7]) was above 10000 nM; in assay [2] (setting [6]) it was around 9330 nM.
`CC1(C)N=C(c2ccc(-c3ccc4cc(F)ccc4c3)cc2F)N(C[C@@H]2CCN(C(=O)C3CC3)C2)C1=O` [Compound 66]: the IC50 in assay [1] is 52.5 nM; in assay [2] (setting [6]), around 427 nM; in assay [3], 692 nM; in assay [5], 589 nM.
Take `CC1(C)N=C(c2ccc(-c3n[nH]c4ccccc34)cc2F)N(C[C@@H]2CCN(C(=O)C3CC3)C2)C1=O` [Compound 57, (R)-1-((1-(cyclopropanecarbonyl)pyrrolidin-3-yl)methyl)-2-(2-fluoro-4-(1H-indazol-3-yl)phenyl)-4,4-dimethyl-1H-imidazol-5(4H)-one]: the IC50 in assay [1] is 2750 nM; in assay [3], 1780 nM; in assay [5] it was 646 nM.
For the compound “1-((1-(cyclopropanecarbonyl)azetidin-3-yl)methyl)-2-(2-fluoro-4-(1-methyl-1H-indazol-5-yl)phenyl)-4,4-dimethyl-1H-1-imidazol-5(4H)-one [Compound 69]”, the “Human FASN pIC50” value in assay [4] turned out to be 6.96. In addition, in assay [1], the “FASN Keto-reductase Domain pIC50” value is 6.67. The “pIC50 With Palmitate” value in assay [2] (25 μM palmitate added (control)) is on record as below 5. The “pIC50 Without Palmitate” value in assay [2] (no palmitate) stood at 7.19. Also, in assay [3], the “pIC50 LNCaP_Vancouver prostate cell” value was 6.87. The “pIC50 PC-3M-Luc-C6 prostate cell” value in assay [5] turned out to be 7.04.
`CC1(C)N=C(c2ccc(-c3ccc4cnccc4c3)cc2)N(CC2CN(C(=O)C3CC3)C2)C1=O` [Compound 27, 1-((1-(cyclopropanecarbonyl)azetidin-3-yl)methyl)-2-(4-(isoquinolin-6-yl)phenyl)-4,4-dimethyl-1H-imidazol-5(4H)-one]: the IC50 is above 10000 nM in assay [2] (setting [7]), around 316 nM in assay [2] (setting [6]), 1380 nM in assay [3] and 324 nM in assay [5].
The matching figures for `CC1(c2ccccc2)N=C(c2ccc(-c3ccc4occc4c3)cc2)N(C[C@@H]2CCN(C(=O)C3CC3)C2)C1=O` (mixture of isomers) [Compound 5, (4RS)-2-(4-(Benzofuran-5-yl)phenyl)-1-(((R)-1-(cyclopropanecarbonyl)pyrrolidin-3-yl)methyl)-4-methyl-4-phenyl-1H-imidazol-5(4H)-one]: above 10000 nM, 2000 nM, 4370 nM and around 1860 nM.
Turning to `CC1(C)N=C(c2ccc(-c3cnc4ccccc4c3)cc2)N(C[C@@H]2CCN(C(=O)C3CC3)C2)C1=O` [Compound 25, (R)-1-((1-(cyclopropanecarbonyl)pyrrolidin-3-yl)methyl)-4,4-dimethyl-2-(4-(quinolin-3-yl)phenyl)-1H-imidazol-5(4H)-one], the IC50 is above 10000 nM in assay [2] (setting [7]), 1170 nM in assay [2] (setting [6]), 2880 nM in assay [3] and 891 nM in assay [5].
The matching figures for `CC1(C)N=C(c2ccc(-c3ccc(-c4ccncc4)cc3)cc2)N(CC2CN(C(=O)C3CC3)C2)C1=O` [Compound 26, 1-((1-(cyclopropanecarbonyl)azetidin-3-yl)methyl)-4,4-dimethyl-2-(4′-(pyridin-4-yl)-[1,1′-biphenyl]-4-yl)-1H-imidazol-5(4H)-one]: above 10000 nM, 1950 nM, 3390 nM and 1000 nM.
The matching figures for `Cn1cc(-c2ccc(-c3ccc(C4=NC(C)(C)C(=O)N4C[C@@H]4CCN(C(=O)C5CC5)C4)c(F)c3)cc2)cn1` [Compound 45]: above 10000 nM, 26.3 nM, 117 nM and 67.6 nM.
As to `CC1(C2CC2)N=C(c2ccc(-c3ccc4occc4c3)cc2)N(C[C@@H]2CCN(C(=O)C3CC3)C2)C1=O` (mixture of isomers) [Compound 9, (4RS)-2-(4-(Benzofuran-5-yl)phenyl)-1-(((R)-1-(cyclopropanecarbonyl)pyrrolidin-3-yl)methyl)-4-cyclopropyl-4-methyl-1H-imidazol-5(4H)-one], the IC50 in assay [2] (setting [7]) was above 10000 nM; in assay [2] (setting [6]), around 1910 nM; in assay [3], 2040 nM; in assay [5], 1620 nM.
The matching figures for `CC1(C)N=C(c2ccc(-c3cccc4ncccc34)cc2)N(C[C@@H]2CCN(C(=O)C3CC3)C2)C1=O` [Compound 31, (R)-1-((1-(cyclopropanecarbonyl)pyrrolidin-3-yl)methyl)-4,4-dimethyl-2-(4-(quinolin-5-yl)phenyl)-1H-1-imidazol-5(4H)-one]: above 10000 nM, around 1000 nM, 912 nM and around 617 nM.
